These are literature values, as cited in patent US6251620A, “Three dimensional structure of a ZAP tyrosine protein kinase fragment and modeling methods” (priority 1997, dated 2001).

Non-standard residues stand in square brackets, D forms with d. pY = N[C@@H](Cc1ccc(OP(=O)(O)O)cc1)C(=O)O; Nle = CCCC[C@H](N)C(=O)O

One data set has as its system BDF1 mice. As to conditions: BDF1 mice given DBA/2 spleen:lymph node cells; usable as positive controls.
In the next data set the test system is MRL/Ipr-mice. The conditions noted are these: SLE.
A further data set has as its system ZAP-NC. The conditions noted are these: in vitro binding of ZAP-NC with synthetic phosphopeptides (ref. 25).

As to `C=CC[C@@H]1/C=C(\C)C[C@H](C)C[C@H](OC)[C@H]2O[C@@](O)(C(=O)C(=O)N3CCCC[C@H]3C(=O)O[C@H](/C(C)=C/[C@@H]3CC[C@@H](O)[C@H](OC)C3)[C@H](C)[C@@H](O)CC1=O)[C@H](C)C[C@@H]2OC` [FK506], the side effects result (kidney and central nervous system) was “serious side effects in the kidney and central nervous system”. Also, the kidney toxicity result (patients receiving FK506, in some cases kidney transplant required after the liver transplant) is “severe kidney toxicity has been observed”. Also, the “activity in CGVHD model” value in the data set with BDF1 mice is on record as “active in this model”.
Consider `O=P1(N(CCCl)CCCl)NCCCO1` (centres unmarked) [cyclophosphamide], for which the “effect on course of disease” value with MRL/Ipr-mice is “can prevent and reverse the course of disease”. In the data set with BDF1 mice, the “activity in CGVHD model” value is reported as “active in this model”.
On to `Cc1oncc1C(=O)Nc1ccc(C(F)(F)F)cc1` [leflunomide], for which, in the data set on MRL/Ipr-mice, the “effect on course of disease” value was “can prevent and reverse the course of disease”. Also, the “activity in CGVHD model” value in the data set on BDF1 mice was “active in this model”.
As for `C[C@]12C=CC(=O)C=C1CC[C@@H]1[C@@H]2[C@@H](O)C[C@@]2(C)[C@H]1CC[C@]2(O)C(=O)CO` [prednisolone], in the data set with BDF1 mice, the “activity in CGVHD model” value is on record as “active in this model”.
“Ac.Asn.Gln.Leu.pTyr.Asn.Glu.Leu.Asn.Leu.Gly.Arg.Arg.Glu.Glu.pTyr.Asp.Val.Leu.Asp.NH2 [Ligand 5]”: the binding hierarchy entry in the data set with ZAP-NC is “.zeta.1 =.zeta.2 >ε=.zeta.3”.
Turning to “Ac.Asp.Gly.Leu.pTyr.Gln.Gly.Leu.Ser.Thr.Ala.Thr.Lys.Asp.Thr.pTyr.Asp.Ala.Leu.His.NH2 (Ac-DGL[pY]QGLSTATKDT[pY]DALH-NH2; SMILES CC(=O)N[C@@H](CC(=O)O)C(=O)NCC(=O)N[C@@H](CC(C)C)C(=O)N[C@@H](Cc1ccc(OP(=O)(O)O)cc1)C(=O)N[C@@H](CCC(N)=O)C(=O)NCC(=O)N[C@@H](CC(C)C)C(=O)N[C@@H](CO)C(=O)N[C@H](C(=O)N[C@@H](C)C(=O)N[C@H](C(=O)N[C@@H](CCCCN)C(=O)N[C@@H](CC(=O)O)C(=O)N[C@H](C(=O)N[C@@H](Cc1ccc(OP(=O)(O)O)cc1)C(=O)N[C@@H](CC(=O)O)C(=O)N[C@@H](C)C(=O)N[C@@H](CC(C)C)C(=O)N[C@@H](Cc1c[nH]cn1)C(N)=O)[C@@H](C)O)[C@@H](C)O)[C@@H](C)O) [Ligand 7]”, the binding hierarchy result with ZAP-NC is listed as “.zeta.1 =.zeta.2 >ε=.zeta.3”.
“Ac.Gly.Leu.pTyr.Asn.Glu.Leu.Gln.Lys.Asp.Lys.Nle.Ala.Glu.Ala.pTyr.Ser.Glu.Ile.Gly.NH2 (Ac-GL[pY]NELQKDK[Nle]AEA[pY]SEIG-NH2; SMILES CCCC[C@H](NC(=O)[C@H](CCCCN)NC(=O)[C@H](CC(=O)O)NC(=O)[C@H](CCCCN)NC(=O)[C@H](CCC(N)=O)NC(=O)[C@H](CC(C)C)NC(=O)[C@H](CCC(=O)O)NC(=O)[C@H](CC(N)=O)NC(=O)[C@H](Cc1ccc(OP(=O)(O)O)cc1)NC(=O)[C@H](CC(C)C)NC(=O)CNC(C)=O)C(=O)N[C@@H](C)C(=O)N[C@@H](CCC(=O)O)C(=O)N[C@@H](C)C(=O)N[C@@H](Cc1ccc(OP(=O)(O)O)cc1)C(=O)N[C@@H](CO)C(=O)N[C@@H](CCC(=O)O)C(=O)N[C@H](C(=O)NCC(N)=O)[C@@H](C)CC) [Ligand 6]”: the binding hierarchy entry in the data set with ZAP-NC is “.zeta.1 =.zeta.2 >ε=.zeta.3”.
